Marks after values point to notes of the source that are not given here.
Assays:
HGC27 = test: Tumour cell proliferation inhibition, MTT assay, HGC27; format: cell-based, human; settings: 72 hours
MCF-7 = test: Tumour cell proliferation inhibition, MTT assay, MCF-7; format: cell-based, human; settings: 72 hours
786-O = test: Tumour cell proliferation inhibition, MTT assay, 786-O; format: cell-based, human; settings: 72 hours
HCT-116 = test: Tumour cell proliferation inhibition, MTT assay, HCT-116; format: cell-based, human; settings: 72 hours
Description: Compound AZD5363 (NCT02208375, NCT02208375, NCT01625286), which have entered the clinical phase II study, was used as a positive control, and the compound was assayed against common tumour cell lines (human ovarian cancer cell line OVCAR-8 and human colon cancer cell line HCT-116) by MTT assay, at the same time, the akt1 enzyme inhibitory activity (IC50) was evaluated using a commercial Akt1 kit.
1) The pharmacological test method for the tumour cell proliferation inhibiting activity of the compound of the present invention was as follows:
The first was the determination of in vitro tumour growth inhibitory activity and the preliminary structure-activity relationship study, and different solid tumour cell lines were used to determine the in vitro antitumour activity of the synthesized compounds.
Experimental materials: cell lines: human ovarian cancer cells (OVCAR8), colon adenocarcinoma cells (HCT-116),
Medium: OVCAR8: RPMI 1640+fetal calf serum
Drug preparation method: dissolving the drug in DMSO to make a 50 mM of stock solution, and diluting it to a certain ratio to obtain 5 different concentrations.
Tumour Cells being Cultured In Vitro:
The selected tumour cells were incubated in a, 5% of CO2 cell incubator at 37° C., and passaged until the cell density was 70 to 90% (the adherent cells were passaged with Duck's EDTA) and used for subsequent experiments.
The compound was dissolved in dimethyl sulfoxide (DMSO), diluted, and tumour cells were seeded into 4000 cells/200 μL/well in 96-well plates, and 1 μL of compound was added to each well to a final concentration of 50 μM, 10 μM, 2 μM, and 0.4 μM. 0.08 μM were incubated in a, 5% of CO2 cell incubator at 37° C. for 72 hours with DMSO (1%) as a blank control.
The calculation formula of the cell inhibition rate is: cell inhibition rate %=(control group OD value−drug group OD value)/control cell OD value×100%, and the half inhibition concentration (IC50) was determined by the Bliss method.

CEM-C1 = test: Tumour cell proliferation inhibition, MTT assay, CEM-C1; format: cell-based, human; settings: 72 hours
hERG potassium channel = target: T1, hERG potassium channel (Homo sapiens, UniProt Q12809); test: hERG potassium channel inhibition, manual whole-cell patch clamp in CHO hERG cells; format: cell-based; settings: for hERG (Inhibition rate at 3 μM concentration): CHO hERG cells, patch clamp
T1 construct: host or cells: CHO
T1 sequence (Q12809 whole entry): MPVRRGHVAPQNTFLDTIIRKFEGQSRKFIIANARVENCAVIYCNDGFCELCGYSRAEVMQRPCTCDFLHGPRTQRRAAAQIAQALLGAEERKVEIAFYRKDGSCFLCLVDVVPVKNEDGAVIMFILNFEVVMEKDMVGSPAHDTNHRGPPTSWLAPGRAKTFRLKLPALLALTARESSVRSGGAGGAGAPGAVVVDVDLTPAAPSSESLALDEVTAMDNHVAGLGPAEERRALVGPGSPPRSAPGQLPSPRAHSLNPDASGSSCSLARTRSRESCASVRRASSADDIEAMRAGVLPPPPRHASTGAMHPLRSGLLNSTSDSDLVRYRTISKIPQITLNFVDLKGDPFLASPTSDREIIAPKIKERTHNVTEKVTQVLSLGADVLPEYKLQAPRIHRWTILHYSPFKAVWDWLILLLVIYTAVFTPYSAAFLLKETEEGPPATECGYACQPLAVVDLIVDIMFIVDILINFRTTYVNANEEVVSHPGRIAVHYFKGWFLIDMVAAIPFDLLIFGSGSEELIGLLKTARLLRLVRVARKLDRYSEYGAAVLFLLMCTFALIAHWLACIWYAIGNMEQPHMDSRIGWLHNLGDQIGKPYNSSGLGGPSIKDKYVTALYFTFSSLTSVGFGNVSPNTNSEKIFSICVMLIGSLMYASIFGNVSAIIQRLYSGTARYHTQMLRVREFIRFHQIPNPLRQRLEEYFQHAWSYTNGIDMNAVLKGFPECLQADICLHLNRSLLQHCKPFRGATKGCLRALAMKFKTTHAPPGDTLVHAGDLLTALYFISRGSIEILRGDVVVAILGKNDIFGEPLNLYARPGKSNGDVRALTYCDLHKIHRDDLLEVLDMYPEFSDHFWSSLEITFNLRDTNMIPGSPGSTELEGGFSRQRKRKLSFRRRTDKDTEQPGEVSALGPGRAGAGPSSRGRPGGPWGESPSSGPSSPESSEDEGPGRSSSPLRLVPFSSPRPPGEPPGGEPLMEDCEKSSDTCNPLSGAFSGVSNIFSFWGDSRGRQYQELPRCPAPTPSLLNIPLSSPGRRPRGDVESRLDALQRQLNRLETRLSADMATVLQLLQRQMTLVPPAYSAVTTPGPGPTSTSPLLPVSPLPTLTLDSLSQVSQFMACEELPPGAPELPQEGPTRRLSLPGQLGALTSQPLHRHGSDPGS
Description: A Sixty-Third Embodiment: hERG Potassium Channel Inhibition Activity Experiment
The cells used in this assay were CHO cell lines transfected with hERG cDNA and stably expressing the hERG channel (supplied by Sophion Bioscience, Denmark). The cells were cultured in medium containing the following components (all from Invitrogen): Ham's F12 medium, 10% (v/v) inactivated fetal bovine serum, 100 μg/ml hygromycin B, and 100 μg/ml Geneticin. 2.1.2CHO hERG cells were grown in a Petri dish containing the above culture solution, and cultured in an incubator containing 5% of CO2 at 37° C. 24 to 48 hours prior to electrophysiological experiments, CHO hERG cells were transferred to circular glass slides placed in petri dishes and grown under the same culture and culture conditions as above. The density of CHO hERG cells on each circular slide requires that most cells achieve independent, individual requirements.
2. Compound Treatment and Dilution
To obtain the IC50 of the compound, we selecte the following concentrations (30, 10, 3, 1, 0.3, and 0.1 μM) for testing. Prior to testing, the […] were first diluted to 10, 3, 1, 0.3, and 0.1 mM stock solution in gradual dilution with DMSO and then diluted to the final μM test concentration with extracellular fluid. The final concentration of DMSO in each of the other compound solutions was 0.1% except that the DMSO concentration in the 30 μM compound test solution was 0.3%. The positive control Cisapride (cishabili) was tested at a concentration of 0.1 μM. All compound solutions were sonicated and shaken for 5 to 10 minutes to ensure complete dissolution of the compound.
3. Electrophysiological Recording System and Data Analysis
This experiment uses a manual patch clamp system (HEKA EPC-10 signal amplifier and digital conversion system, purchased from HEKA Electronics, Germany) for the recording of whole cell currents. Round slide with CHO hERG cells on the surface was placed in an electrophysiology recording cell under an inverted microscope. The extracellular fluid was continuously perfused in the recording tank (about 1 ml per minute). The experimental procedure uses conventional whole-cell patch clamp current recording techniques. Unless otherwise stated, the experiments were carried out at regular room temperature (˜25° C.). The cells were clamped at a voltage of −80 mV. The cell clamp voltage was depolarized to +20 mV to activate the hERG potassium channel, and after 5 seconds it was clamped to −50 mV to eliminate inactivation and generate tail current. The tail current peak was used as the value of the hERG current magnitude. After the hERG potassium current recorded in the above step was stabilized under the continuous extracellular fluid perfusion in the recording tank, the drug to be tested can be superimposed and filled until the inhibitory effect of the drug on the hERG current reaches a steady state. Generally, the recent three consecutive current recording lines were recombined as a criterion for judging whether or not the state is stable. After reaching a steady state, extracellular fluid perfusion rinse until hERG current returns to the size before adding drug. One cell can test one or more drugs, or multiple concentrations of the same drug, but need to be flushed with extracellular fluid between different drugs. Cisapride (cisapride, purchased from Sigma) was used in the experiment as a positive control to ensure that the cells used were of normal quality. The test data was analysed by HEKA Patchmaster, Microsoft Excel and data analysis software provided by Graphpad Prism.

[1] = Oral pharmacokinetic experiment in SD rats; format: in vivo; settings: oral administration; for 1/2 / AUC0-inf / AUC0-t / Cmax / Tmax: 20 mg/kg, mean n = 3; for Cmax / Tmax: rat
Description: […] The blood sampling times of the tail vein administered by intragastric administration were 0.25, 0.5, 1, 2, 4, 6, 8, 10, 24 hours; the times of blood collection by intravenous administration were 0.05, 0.1, 0.17, 0.5, 1, 2, 4, 6, 8, 10, 24 hours. 0.3 ml of whole blood was taken, and after centrifugation, 0.1 ml of plasma was taken and analysed by LC-MS.

[2] = system: human gastric cancer HGC27 nude mice xenografts; test: In vivo antitumour activity, human gastric cancer HGC27 nude mice xenografts; settings: HGC27 xenograft, 50 mg/kg intragastric once a day; for Tumour volume D1: D1 (start)
Description: (§1) A Sixty-Fifth Embodiment: In Vivo Antitumour Activity of Compounds
(§2) 1) Establishment of a nude mouse xenograft model: 1×10^7 test tumour cells were injected into the armpit of nude mice, after three generations, HGC27 mouse tumour blocks were dissected and placed in a glass dish containing physiological saline, after the necrotic area was removed by incision, the tumour mass was cut into 1-2 mm^3 and inserted into the left axilla of the nude mouse with a trocar.
(§3) 2) Animal grouping and drug delivery arrangements: after the tumour grows to an average volume of 100-300 mm^3, 20 mice were randomly grouped according to the tumour volume, and the above test animals were given the corresponding test substances by intragastric administration at a dose of 10 mL/kg with once a day.
(§4) 3) Data measurement and statistics: The tumour volume was weighed and measured twice and dosing period was 21 days. On the 22nd day, after the body weight was weighed and the tumour volume was measured, the nude mice were sacrificed and the tumours were weighed to calculate the relative tumour volume (RTV), relative tumour growth rate (T/C) and tumour inhibition percentage (IR) for statistical testing. The calculation formula was as follows: (a) TV (tumour volume)=½×a×b^2, wherein a and b represent the length and width of the tumour respectively, (b) RTV (relative tumour volume)=Vt/V0, Where V0 is the tumour volume measured at the time of group administration (i.e. d0), Vt is the tumour volume at each measurement, (c) T/C (%)=TRTV/CRTV×100%, wherein TRTV is the RTV of treatment group, CRTV is the RTV of the solvent control group, (d) IR (%)=(1−TWt/TWc)×100%, wherein TWt is the tumour weight of the treatment group, and TWc is the tumour weight of the solvent control group.

[3] = system: human ovarian cancer SKOV3 nude mice xenografts; test: In vivo antitumour activity, human ovarian cancer SKOV3 nude mice xenografts; settings: SKOV3 xenograft, 50 mg/kg
[4] = system: human kidney cancer 786-O nude mice xenografts; test: In vivo antitumour activity, human kidney cancer 786-O nude mice xenografts; settings: 786-O xenograft; for Tumour volume D1: D 1 (start); for Tumour volume D1 / RTV: x ± SE; for Tumour volume D 21: D 21, x ± SE
Description: [Worded in the source for another cell line; this cell line is reported under the same test.] as §1, §2, §3, §4

[5] = same concentration (3 μM), ratio of inhibition rates

## Cn1nccc1-c1ccc(C(=O)N[C@@H]2CNCC[C@H]2c2ccc(F)c(F)c2)c(F)c1 [VII-1a]
HGC27
  IC50: 40 nM
MCF-7
  IC50: 2250 nM
786-O
  IC50: 560 nM
HCT-116
  IC50: 1340 nM
CEM-C1
  IC50: 100 nM
hERG potassium channel
  hERG (Inhibition rate at 3 μM concentration): 15.9%
[1]
  1/2: 3.34 h
  AUC0-inf: 1500 ng·h/mL
  AUC0-t: 1480 ng·h/mL
[1]; plasma
  Cmax: 132 ng/mL
  Tmax: 4.17 h
[2]
  RTV: 11.37 ± 3.07
  T/C(%): 26.95%
  Tumour volume D1: 213 ± 102 mm^3
  Tumour volume D22: 1498 ± 206* mm^3

## Cn1nccc1-c1ccc(C(=O)N[C@@H]2CNCC[C@H]2c2ccc(F)c(F)c2)c(F)c1.O=C(O)C[C@H](O)C(=O)O [VII-30]
hERG potassium channel
  hERG (Inhibition rate at 3 μM concentration): 20%
hERG potassium channel; [5]
  hERG blocking effect relative to GSK2141795: 0.4
  hERG blocking effect relative to compound 31 (WO2015/144021A1): 0.32
[1]
  1/2: 3.63 h
  AUC0-inf: 2390 ng·h/mL
  AUC0-t: 2350 ng·h/mL
[1]; salt versus free form VII-1a
  improvement of AUC0-t over VII-1a: 58%
[1]; in vivo
  Cmax: 253 ng/mL
  Tmax: 1.75 h
[2]
  RTV: 7.29 ± 3.03
  T/C(%): 17.27%
  Tumour volume D1: 215 ± 88 mm^3
  Tumour volume D22: 1157 ± 452* mm^3
[3]
  T/C(%): 32.96%
[3]; D 1 (start), x ± SE
  Tumour volume D1: 117 ± 65 mm^3
[3]; D 22, x ± SE
  Tumour volume D22: 248 ± 19* mm^3
[3]; x ± SE
  RTV: 3.60 ± 2.67
[4]; 50 mg/kg
  T/C(%): 22.86%
  Tumour volume D1: 125 ± 14 mm^3
  Tumour volume D 21: 328 ± 105** mm^3
  RTV: 2.62 ± 0.83
[4]; 100 mg/kg
  T/C(%): 9.26%
  Tumour volume D1: 126 ± 13 mm^3
  Tumour volume D 21: 127 ± 51** mm^3
  RTV: 1.06 ± 0.43

— patent US11319300B2, “Polyfluoro-substituted aromatic heterocyclic derivative, pharmaceutical composition containing same, and applications thereof” (ZHEJIANG UNIVERSITY, priority 2017, dated 2022)
